The target in one experiment is T1, c-kit (Homo sapiens, UniProt P10721).
T1 construct: MO7e (human megakaryocytic leukemia cell line) which had been arrested for 20 hr; endogenous in cells; host or cells: MO7e human megakaryocytic leukemia cell line
In words: Inhibitory activity against c-kit autophosphorylation (MO7e cells, h-SCF). Format: cell-based. The settings on record: for IC50: MO7e cells, read-out: c-kit IC50; for inhibition at 1 µM: Mo7e, figure in parentheses in −( ). Put shortly: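 MO7e human megakaryocytic leukemia cells, arrested 20 hr, treated with compound 1 hr, then stimulated with 50 ng/ml h-SCF for 5 min and lysed. Lysates captured on immobilized anti-phosphotyrosine antibody, detected with anti-c-kit primary and HRP secondary antibody; absorbance at 450 nm.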

The next experiment concerns the target T2, PDGF-Ra (Homo sapiens, UniProt P16234).
T2 construct: host or cells: G-292 human osteosarcoma cells
Nature of the experiment: Inhibitory activity against PDGF-Ra phosphorylation by PDGF-AA stimulation using G292. Format: cell-based. The settings on record: for IC50: > means inhibition at indicated concentration not more than 50%, < and << not less than 50%, read-out: PDGF (E) IC50. The procedure, abridged: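 Read-out: A450 from a sandwich ELISA (PY-20 capture, anti-PDGF-Ra detection, peroxidase colour) of lysates from G-292 cells given compound for 1 hr at 37 °C before a 5 min challenge with PDGF-AA at 50 ng/ml.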

For orientation: IC50 means the concentration needed to halve the response being measured. The inhibition is how much of the control response was suppressed.

Where two headings read alike, the source gives them in different places. Some results are limits rather than exact numbers.

T1 sequence (P10721 26-976): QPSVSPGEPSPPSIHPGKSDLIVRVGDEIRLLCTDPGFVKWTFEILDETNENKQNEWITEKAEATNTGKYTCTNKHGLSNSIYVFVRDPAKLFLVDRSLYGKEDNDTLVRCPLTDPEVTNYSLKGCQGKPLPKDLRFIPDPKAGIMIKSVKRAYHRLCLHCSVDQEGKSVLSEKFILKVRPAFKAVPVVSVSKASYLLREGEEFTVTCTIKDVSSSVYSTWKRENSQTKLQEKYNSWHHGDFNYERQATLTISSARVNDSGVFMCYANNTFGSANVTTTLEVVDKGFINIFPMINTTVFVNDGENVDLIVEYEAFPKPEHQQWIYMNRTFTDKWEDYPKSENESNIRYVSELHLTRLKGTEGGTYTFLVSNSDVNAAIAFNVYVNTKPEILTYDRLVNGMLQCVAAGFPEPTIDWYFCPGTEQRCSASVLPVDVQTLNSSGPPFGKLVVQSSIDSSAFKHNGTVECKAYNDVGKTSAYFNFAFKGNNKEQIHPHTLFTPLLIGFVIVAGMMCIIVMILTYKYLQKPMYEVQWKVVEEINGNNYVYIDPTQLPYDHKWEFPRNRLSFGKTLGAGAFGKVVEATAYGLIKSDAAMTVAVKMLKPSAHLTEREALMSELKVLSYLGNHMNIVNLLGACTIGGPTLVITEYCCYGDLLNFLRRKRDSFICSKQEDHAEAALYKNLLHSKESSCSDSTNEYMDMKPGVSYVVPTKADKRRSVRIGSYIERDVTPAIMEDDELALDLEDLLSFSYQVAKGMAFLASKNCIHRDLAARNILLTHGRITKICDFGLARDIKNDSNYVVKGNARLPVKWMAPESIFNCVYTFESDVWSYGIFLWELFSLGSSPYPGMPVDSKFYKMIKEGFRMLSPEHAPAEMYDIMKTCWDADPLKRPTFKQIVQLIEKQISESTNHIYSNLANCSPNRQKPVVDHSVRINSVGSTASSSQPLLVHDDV
T2 sequence (P16234 24-1089): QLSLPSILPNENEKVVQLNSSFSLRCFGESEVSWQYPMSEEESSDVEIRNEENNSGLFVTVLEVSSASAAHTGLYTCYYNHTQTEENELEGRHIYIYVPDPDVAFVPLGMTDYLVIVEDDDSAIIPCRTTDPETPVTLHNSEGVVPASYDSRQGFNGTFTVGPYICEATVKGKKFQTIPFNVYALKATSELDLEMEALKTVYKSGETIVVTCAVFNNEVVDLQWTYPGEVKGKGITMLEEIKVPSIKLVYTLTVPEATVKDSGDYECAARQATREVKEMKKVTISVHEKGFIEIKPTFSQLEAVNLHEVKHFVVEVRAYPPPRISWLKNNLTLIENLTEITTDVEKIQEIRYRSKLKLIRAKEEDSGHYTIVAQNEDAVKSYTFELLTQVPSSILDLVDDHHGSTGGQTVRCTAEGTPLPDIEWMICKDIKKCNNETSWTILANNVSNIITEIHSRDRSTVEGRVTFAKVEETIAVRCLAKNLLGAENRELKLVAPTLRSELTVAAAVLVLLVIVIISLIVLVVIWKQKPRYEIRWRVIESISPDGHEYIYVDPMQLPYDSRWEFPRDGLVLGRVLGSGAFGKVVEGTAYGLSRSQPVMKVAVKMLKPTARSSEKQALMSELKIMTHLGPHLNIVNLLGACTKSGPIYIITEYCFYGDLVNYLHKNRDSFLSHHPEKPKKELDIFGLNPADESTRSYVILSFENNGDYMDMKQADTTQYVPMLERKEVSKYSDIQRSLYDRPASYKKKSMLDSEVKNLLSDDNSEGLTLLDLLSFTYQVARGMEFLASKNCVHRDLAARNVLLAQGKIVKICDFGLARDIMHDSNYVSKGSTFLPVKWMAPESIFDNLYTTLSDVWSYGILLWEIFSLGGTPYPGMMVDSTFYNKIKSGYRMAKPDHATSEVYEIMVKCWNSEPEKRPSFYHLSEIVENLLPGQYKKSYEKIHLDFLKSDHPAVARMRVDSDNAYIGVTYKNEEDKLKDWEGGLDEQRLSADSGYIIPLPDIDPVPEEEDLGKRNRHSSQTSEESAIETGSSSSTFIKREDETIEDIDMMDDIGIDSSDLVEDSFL

As for `COc1cc2ncnc(Oc3ccc(N)c(N4CCOCC4)c3)c2cc1OC` [Example 1150], the values for the IC50 at c-kit (h-SCF stimulation) and at PDGF-Ra were 192 nM and 51 nM, respectively.

Regarding `COc1cc2ncnc(Oc3ccc(NC(=S)NC(=O)c4ccccc4C)c(N4CCOCC4)c3)c2cc1OC` [Example 1151, N-{4-[(6,7-Dimethoxy-4-quinazolinyl)oxy]-2-morpholinophenyl}-N′-(2-methylbenzoyl)thiourea], the IC50 on c-kit (h-SCF stimulation) is 146 nM; at PDGF-Ra it was under 10 nM.

Consider `COc1cc2nccc(Oc3ccc(NC(=S)NC(=O)c4ccc(CN5CCOCC5)cc4)cc3)c2cc1OC` [Example 1153, N-{4-[(6,7-Dimethoxy-4-quinolyl)oxy]phenyl}-N′-[4-(morpholinomethyl)benzoyl]thiourea], for which the inhibition at 1 µM on c-kit (at 1000 nM) worked out at 13%. The IC50 on PDGF-Ra turned out to be 43 nM.

With `COc1cc2ncnc(Oc3ccc(NC(=S)NC(=O)c4ccc(C)nc4)cc3)c2cc1OC` [Example 1154, N-{4-[(6,7-Dimethoxy-4-quinazolinyl)oxy]phenyl}-N′-[(6-methyl-3-pyridyl)carbonyl]thiourea], the inhibition at 1 µM on c-kit (at 1000 nM) is 21%. The IC50 at PDGF-Ra came to 49 nM.

On to `COc1cc2ncnc(Oc3ccc(NC(=S)NC(=O)c4ccncc4)cc3)c2cc1OC` [Example 1155, N-{4-[(6,7-Dimethoxy-4-quinazolinyl)oxy]phenyl}-N′-(4-pyridylcarbonyl)thiourea], for which the inhibition at 1 µM on c-kit (at 1000 nM) amounted to 31%. Also, the IC50 at PDGF-Ra came out at 17 nM.

Consider `COc1cc2ncnc(Oc3ccc(NC(=S)NC(=O)c4ccccn4)cc3)c2cc1OC` [Example 1156, N-{4-[(6,7-Dimethoxy-4-quinazolinyl)oxy]phenyl}-N′-(2-pyridylcarbonyl)thiourea], for which the inhibition at 1 µM on c-kit (at 1000 nM) stood at 28%. On PDGF-Ra, the half-maximal inhibitory concentration (IC50) is over 100 nM. For the same compound, the inhibition at 0.1 µM on PDGF-Ra (G292, figure in parentheses in >100( ), at 100 nM, read-out: PDGF (E) inhibition (%) at 100 nM) amounted to 35%.

As for `COc1cc2nccc(Oc3ccc(NC(=S)NC(=O)C4CCCCC4)cc3Cl)c2cc1OC` [Example 1179, N-{3-Chloro-4-[(6,7-dimethoxy-4-quinolyl)oxy]phenyl}-N′-cyclohexylcarbonylthiourea], the IC50 amounted to 327 nM at c-kit (h-SCF stimulation) and 14 nM at PDGF-Ra.

Regarding `COc1cc2ncnc(Oc3ccc(NC(=S)NC(=O)C4CCCCC4)cc3)c2cc1OC` [Example 1180, N-Cyclohexylcarbonyl-N′-{4-[(6,7-dimethoxy-4-quinazolinyl)oxy]phenyl}thiourea], the IC50 is 480 nM at c-kit (h-SCF stimulation) and under 10 nM on PDGF-Ra.

For the compound `COc1cc2ncnc(Oc3ccc(NC(=S)NC(=O)C4CC4)cc3)c2cc1OC` [Example 1181, N-Cyclopropylcarbonyl-N′-{4-[(6,7-dimethoxy-4-quinazolinyl)oxy]phenyl}thiourea], the inhibition at 1 µM on c-kit (at 1000 nM) is 26%. On PDGF-Ra, the IC50 came out at 35 nM.

Consider `COc1cc2nccc(Oc3ccc(NC(=S)NC(=O)C4CCCC4)cc3Cl)c2cc1OC` [Example 1182, N-{3-Chloro-4-[(6,7-dimethoxy-4-quinolyl)oxy]phenyl}-N′-cyclopentylcarbonylthiourea], for which the IC50 is 206 nM at c-kit (h-SCF stimulation) and under 10 nM at PDGF-Ra.

As to `COc1cc2ncnc(Oc3ccc(NC(=S)NC(=O)C4CCCC4)cc3)c2cc1OC` [Example 1183, N-Cyclopentylcarbonyl-N′-{4-[(6,7-dimethoxy-4-quinazolinyl)oxy]phenyl}thiourea], the results for the half-inhibitory concentration (IC50) on c-kit (h-SCF stimulation) and on PDGF-Ra were 427 nM and under 10 nM, respectively.

Take `COc1cc2ncnc(Oc3ccc(NC(=S)NC(=O)CCc4cccc(C)c4)cc3)c2cc1OC` [Example 1185, N-{4-[(6,7-Dimethoxy-4-quinazolinyl)oxy]phenyl}-N′-[3-(3-methylphenyl)propanoyl]thiourea]: the inhibition at 1 µM on c-kit (at 1000 nM) came out at 26%. The IC50 on PDGF-Ra is 13 nM.

Take `COc1cc2ncnc(Oc3ccc(NC(=S)NC(=O)CCCCl)cc3)c2cc1OC` [Example 1186, N-(4-Chlorobutanoyl)-N′-{4-[(6,7-dimethoxy-4-quinazolinyl)oxy]phenyl}thiourea]: the half-inhibitory concentration (IC50) on c-kit (h-SCF stimulation) was 405 nM; on PDGF-Ra, under 10 nM.

`CCCCCC(=O)NC(=S)Nc1ccc(Oc2ncnc3cc(OC)c(OC)cc23)cc1` [Example 1189, N-{4-[(6,7-Dimethoxy-4-quinazolinyl)oxy]phenyl}-N′-hexanoylthiourea]: the IC50 on c-kit (h-SCF stimulation) was determined as 73 nM; on PDGF-Ra it was 26 nM.

On to `COc1cc2nccc(Oc3ccc(NC(=S)NC(=O)C4CC4C)cc3Cl)c2cc1OC` (stereo not shown) [Example 1190, N-{3-Chloro-4-[(6,7-dimethoxy-4-quinolyl)oxy]phenyl}-N′-[(2-methylcyclopropyl)carbonyl]thiourea], for which the values for the IC50 on c-kit (h-SCF stimulation) and at PDGF-Ra were 240 nM and 24 nM, respectively.

Regarding `COc1cc2ncnc(Oc3ccc(NC(=S)NC(=O)C4CC4C)cc3)c2cc1OC` (stereo not shown) [Example 1191, N-{4-[(6,7-Dimethoxy-4-quinazolinyl)oxy]phenyl}-N′-[(2-methylcyclopropyl)carbonyl]thiourea], the 50% inhibitory concentration (IC50) at c-kit (h-SCF stimulation) came to 193 nM; at PDGF-Ra it was 31 nM.

In the case of `COc1cc2nccc(Oc3ccc(NC(=S)NC(=O)C4(C)CCCCC4)cc3Cl)c2cc1OC` [Example 1192, N-{3-Chloro-4-[(6,7-dimethoxy-4-quinolyl)oxy]phenyl}-N′-[(1-methylcyclohexyl)carbonyl]thiourea], the IC50 amounted to 672 nM on c-kit (h-SCF stimulation) and 19 nM on PDGF-Ra.

On to `COc1cc2ncnc(Oc3ccc(NC(=S)NC(=O)C4(C)CCCCC4)cc3)c2cc1OC` [Example 1193, N-{4-[(6,7-Dimethoxy-4-quinazolinyl)oxy]phenyl}-N′-[(1-methylcyclohexyl)carbonyl]thiourea], for which, at c-kit (at 1000 nM), the inhibition at 1 µM turned out to be 18%. Also, at PDGF-Ra, the IC50 was under 10 nM.

In the case of `COc1cc2ncnc(Oc3ccc(NC(=S)NC(=O)C4(c5ccccc5)CC4)cc3)c2cc1OC` [Example 1195, N-{4-[(6,7-Dimethoxy-4-quinazolinyl)oxy]phenyl}-N′-[(1-phenylcyclopropyl)carbonyl]thiourea], the IC50 at c-kit (h-SCF stimulation) is 530 nM; at PDGF-Ra, 21 nM.

Consider `CCCC1CCC(C(=O)NC(=S)Nc2ccc(Oc3ccnc4cc(OC)c(OC)cc34)c(Cl)c2)CC1` (stereo not shown) [Example 1196, N-{3-Chloro-4-[(6,7-dimethoxy-4-quinolyl)oxy]phenyl}-N′-[(4-propylcyclohexyl)carbonyl]thiourea], for which the IC50 is 700 nM on c-kit (h-SCF stimulation) and over 100 nM at PDGF-Ra.

For the compound `CCCC1CCC(C(=O)NC(=S)Nc2ccc(Oc3ncnc4cc(OC)c(OC)cc34)cc2)CC1` (stereo not shown) [Example 1197, N-{4-[(6,7-Dimethoxy-4-quinazolinyl)oxy]phenyl}-N′-[(4-propylcyclohexyl)carbonyl]thiourea], the IC50 on c-kit (h-SCF stimulation) was found to be 219 nM; at PDGF-Ra it was 25 nM.

Turning to `COc1cc2nccc(Oc3ccc(NC(=S)NC(=O)CCCCl)cc3Cl)c2cc1OC` [Example 1198, N-(4-Chlorobutanoyl)-N′-{3-chloro-4-[(6,7-dimethoxy-4-quinolyl)oxy]phenyl}thiourea], the figures for the half-maximal inhibitory concentration (IC50) on c-kit (h-SCF stimulation) and at PDGF-Ra were 247 nM and under 10 nM, respectively.

In the case of `CCCC(C)C(=O)NC(=S)Nc1ccc(Oc2ccnc3cc(OC)c(OC)cc23)c(Cl)c1` (stereo not shown) [Example 1200, N-{3-Chloro-4-[(6,7-dimethoxy-4-quinolyl)oxy]phenyl}-N′-(2-methylpentanoyl)thiourea], the IC50 at c-kit (h-SCF stimulation) was determined as 716 nM; at PDGF-Ra it was 25 nM.

Consider `CCCC(C)C(=O)NC(=S)Nc1ccc(Oc2ncnc3cc(OC)c(OC)cc23)cc1` (stereo not shown) [Example 1201, N-{4-[(6,7-Dimethoxy-4-quinazolinyl)oxy]phenyl}-N′-(2-methylpentanoyl)thiourea], for which the IC50 on c-kit (h-SCF stimulation) is 450 nM; at PDGF-Ra it was under 10 nM.

On to `COc1cc2nccc(Oc3ccc(NC(=S)NC(=O)c4ccc(F)cc4F)c(Cl)c3)c2cc1OC` [Example 1202, N-{2-Chloro-4-[(6,7-dimethoxy-4-quinolyl)oxy]phenyl}-N′-(2,4-difluorobenzoyl)thiourea], for which the inhibition at 1 µM on c-kit (at 1000 nM) came out at 15%. For the same compound, the half-maximal inhibitory concentration (IC50) at PDGF-Ra worked out at 50 nM.

`COc1ccc(C(=O)NC(=S)Nc2ccc(Oc3ccnc4cc(OC)c(OC)cc34)c(Cl)c2)cc1OC` [Example 1204, N-{3-Chloro-4-[(6,7-dimethoxy-4-quinolyl)oxy]phenyl}-N′-(3,4-dimethoxybenzoyl)thiourea]: the IC50 at c-kit (h-SCF stimulation) was determined as 434 nM; on PDGF-Ra it was 18 nM.

As to “N-{4-[(6,7-Dimethoxy-4-quinolyl)oxy]-2,3-dimethylphenyl}-N′-[3-(1-piperidinyl)propyl]thiourea [Example 558]”, the IC50 at c-kit (50 ng/ml h-SCF) was determined as 724 nM; at PDGF-Ra it was 73 nM.

Consider “N-{4-[(6,7-Dimethoxy-4-quinolyl)oxy]-2-chlorophenyl}-N′-(1-piperidinyl)urea [Example 595]”, for which the “c-kit inhibition (%) at 1000 nM” value on c-kit (figure within parentheses in −( ) or >1000( ), at 1000 nM) was “−(0) %”. In addition, the IC50 on PDGF-Ra stood at 46 nM.

As to “N-{4-[(6,7-Dimethoxy-4-quinolyl)oxy]-2-chlorophenyl}-N′-[4-(N-benzyl)piperidinyl]urea [Example 605]”, the IC50 came to 394 nM on c-kit (50 ng/ml h-SCF) and 31 nM at PDGF-Ra.

“N-{4-[(6,7-Dimethoxy-4-quinolyl)oxy]-2-methoxyphenyl}-N′-(1-homopiperidinyl)urea [Example 600]”: the IC50 was 208 nM on c-kit (50 ng/ml h-SCF) and under 10 nM on PDGF-Ra.

(Values after patent US7135466B2 (Kirin Beer Kabushiki Kaisha, priority 1999, dated 2006).)
